Assay [1] deals with IL-2-stimulated HEK-Blue IL-2 reporter cells. Nature of the assay: HEK-Blue IL-2 reporter assay (STAT5-inducible SEAP) for determining selectivity. The assay is classed as cell-based. The conditions noted are these: 4 ng/mL human recombinant IL-2, 24 hours. How it is done:
(§1) Example B-3: HEK-Blue™ IL-2 and IFNγ Reporter Assays for Determining Selectivity
(§2) HEK-Blue™ IL-2 and IFNγ reporter cells with a stably-integrated cytokine receptor and STAT5 or STAT1 express STAT-inducible secreted embryonic alkaline phosphatase (SEAP) reporter gene upon cytokine stimulation. These cells were plated in DMEM (Gibco) containing 10% heat-inactivated FBS (Gibco) and 100 U/mL PenStrep (Gibco) at 37° C. under 5% CO2 conditions for 20-22 hours. The cells were then pretreated with serially diluted test compounds for 60 min prior to stimulation with either 4 ng/mL human recombinant IL-2 (Miltenyl Biotech) or 50 ng/mL human recombinant IFNγ (InvivoGen) for 24 hours. SEAP induction was measured using the QUANTI-Blue™ Solution (InvivoGen) according to the manufacturer's instructions.

The subject of assay [2] is TYK2 pseudokinase (JH2); IFNα-stimulated HEK-Blue IFNα/β cells. Nature of the assay: HEK-Blue IFNα/β reporter assay (STAT1-inducible SEAP) for profiling TYK2 pseudokinase (JH2) inhibition. In kind it is cell-based. Particulars: 1 ng/mL human recombinant IFNα, SEAP readout, read-out: IFNα (TYK2 inhibitory activity, IC50). How it is done: (§3) Example B-1: HEK-Blue™ IL-23 and IFNα/β Reporter Assays for Profiling TYK2 Pseudokinase (JH2) Inhibition
(§4) HEK-Blue™ IL-23 and IFNα/β cells with a stably-integrated cytokine receptor and STAT3 or STAT1 express STAT-inducible secreted embryonic alkaline phosphatase (SEAP) reporter gene upon cytokine stimulation. These cells are plated in DMEM (Gibco) containing 10% heat-inactivated FBS (Gibco) and 100 U/mL PenStrep (Gibco) at 37° C. under 5% CO2 conditions for 20-22 hours. The cells are then pretreated with serially diluted test compounds for 60 min prior to stimulation with either 10 ng/mL human recombinant IL-23 (Miltenyl Biotech) or 1 ng/mL human recombinant IFNα (InvivoGen) for 22-24 hours for IL-23 or 16-18 h for IFNα. SEAP induction is measured using the QUANTI Blue™ Solution (InvivoGen) according to the manufacturer's instructions.
(A reporter such as luciferase makes a cellular process visible.)

Another assay concerns the target T1, JAK2 kinase domain (JH1) (Homo sapiens, UniProt O60674).
T1 construct: recombinant purified His or GST-tagged catalytic domain for each enzyme; made in house
Put plainly: HTRF-based selectivity assay, JAK2 catalytic domain. The assay is classed as biochemical. The conditions noted are these: 14.7 μM ATP. The method, then: (§5) Example B-2: HTRF-Based Selectivity Assay
(§6) The ability of compounds to inhibit the activity of JAK1, JAK2, JAK3 and TYK2 is measured using a recombinant purified His or GST-tagged catalytic domain for each enzyme (JAK1, JAK2 and TYK2 are generated in-house; JAK3 was purchased from Carna biosciences, Cat #08-046) in an HTRF format biochemical assay. The reactions employs a commercial peptide substrate from Cisbio (Cat #62TK0PEC). The basic assay protocol is as follows: first, 2.5 μL of diluted compounds (4×) in DMSO are dispensed into a 384-well Optiplate. Next, 2.5 μL of enzyme (final concentrations for enzymes are: TYK2—700 ng/mL, JAK1—80.6 ng/mL, JAK2—2.1 ng/mL and JAK3—171.8 ng/mL) is added and incubated at RT for 5-20 min. Finally, 5 μl of mixture of 2×ATP [Final concentration 20 μM for TYK2, 21.43 μM for JAK1, 14.7 μM for JAK2 and 2.12 μM for JAK3]+2× Substrate [Final concentration 217 nM for TYK2, 454.7 nM for JAK1, 200 nM for JAK2 and 257.4 nM for JAK3] is added to 384 well Optiplate. Composition of Kinase assay buffer used in the assay is as follows: HEPES 50 mM, EGTA 1 mM, MgCl2 10 mM, DTT 2 mM, Tween-20 0.01% and water. Then the plates are shaken and then incubated at 26.5° C. for 60 min.
For orientation: In TR-FRET formats the signal depends on donor and acceptor labels being close together.

The test system of assay [3] is IFNγ-stimulated HEK-Blue IFNγ reporter cells. Put plainly: HEK-Blue IFNγ reporter assay (STAT1-inducible SEAP) for determining selectivity. In kind it is cell-based. Particulars: 50 ng/mL human recombinant IFNγ, 24 hours, read-out: IFN-γ SEAP selectivity assay IC50. How it is done: as §1, §2
A further assay concerns the target T2, TYK2 kinase domain (JH1) (Homo sapiens, UniProt P29597).
T2 construct: recombinant purified His or GST-tagged catalytic domain for each enzyme; made in house
T2 sequence (P29597 897-1176 limits assumed): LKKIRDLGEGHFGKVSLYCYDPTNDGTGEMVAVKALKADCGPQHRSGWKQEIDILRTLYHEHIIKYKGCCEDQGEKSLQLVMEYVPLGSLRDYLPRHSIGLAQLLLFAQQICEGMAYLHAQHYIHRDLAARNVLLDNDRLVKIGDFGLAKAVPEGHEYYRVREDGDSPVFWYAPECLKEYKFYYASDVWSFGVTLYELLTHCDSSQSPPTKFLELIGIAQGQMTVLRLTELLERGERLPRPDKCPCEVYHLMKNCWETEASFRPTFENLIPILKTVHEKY
Nature of the assay: HTRF-based selectivity assay, TYK2 catalytic domain. Particulars: 20 μM ATP. In kind it is biochemical. The method, then:
as §5, §6

The next assay deals with T3, JAK1 kinase domain (JH1) (Homo sapiens, UniProt P23458).
T3 construct: recombinant purified His or GST-tagged catalytic domain for each enzyme; made in house
T3 sequence (P23458 875-1153 limits assumed): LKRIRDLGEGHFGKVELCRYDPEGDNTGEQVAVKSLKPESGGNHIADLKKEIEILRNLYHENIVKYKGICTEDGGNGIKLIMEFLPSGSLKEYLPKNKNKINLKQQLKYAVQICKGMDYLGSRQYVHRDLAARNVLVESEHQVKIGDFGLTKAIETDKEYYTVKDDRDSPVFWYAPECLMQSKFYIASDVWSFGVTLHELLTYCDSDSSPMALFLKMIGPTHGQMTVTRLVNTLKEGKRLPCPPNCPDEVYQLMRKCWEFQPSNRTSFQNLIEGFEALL
Nature of the assay: HTRF-based selectivity assay, JAK1 catalytic domain. In kind it is biochemical. The conditions noted are these: 21.43 μM ATP, read-out: JAK-JHI (IC50). The method, then:
as §5, §6

For assay [4], the system named is TYK2 pseudokinase (JH2); IL-23-stimulated HEK-Blue IL-23 cells. Nature of the assay: HEK-Blue IL-23 reporter assay (STAT3-inducible SEAP) for profiling TYK2 pseudokinase (JH2) inhibition. In kind it is cell-based. Particulars: 10 ng/mL human recombinant IL-23, SEAP readout, read-out: IL23 (TYK2 inhibitory activity, IC50). How it is done:
as §3, §4

The next assay addresses T4, JAK3 kinase domain (JH1) (Homo sapiens, UniProt P52333).
T4 construct: recombinant purified His or GST-tagged catalytic domain for each enzyme; purchased Carna biosciences 08-046
Nature of the assay: HTRF-based selectivity assay, JAK3 catalytic domain. In kind it is biochemical. Particulars: 2.12 μM ATP. How it is done:
as §5, §6

pIC50: −log10 of the molar value. A value given as a limit tells only on which side of the number the result lay.

T4 sequence (P52333 822-1111 limits assumed): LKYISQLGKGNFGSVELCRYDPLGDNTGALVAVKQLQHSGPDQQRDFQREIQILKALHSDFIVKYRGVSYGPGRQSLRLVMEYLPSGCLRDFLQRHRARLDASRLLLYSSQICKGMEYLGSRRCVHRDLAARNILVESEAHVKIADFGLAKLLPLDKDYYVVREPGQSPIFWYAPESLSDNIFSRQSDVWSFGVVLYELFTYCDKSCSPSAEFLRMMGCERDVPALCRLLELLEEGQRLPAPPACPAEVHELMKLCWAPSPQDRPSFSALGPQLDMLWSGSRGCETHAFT
T1 sequence (O60674 849-1124 limits assumed): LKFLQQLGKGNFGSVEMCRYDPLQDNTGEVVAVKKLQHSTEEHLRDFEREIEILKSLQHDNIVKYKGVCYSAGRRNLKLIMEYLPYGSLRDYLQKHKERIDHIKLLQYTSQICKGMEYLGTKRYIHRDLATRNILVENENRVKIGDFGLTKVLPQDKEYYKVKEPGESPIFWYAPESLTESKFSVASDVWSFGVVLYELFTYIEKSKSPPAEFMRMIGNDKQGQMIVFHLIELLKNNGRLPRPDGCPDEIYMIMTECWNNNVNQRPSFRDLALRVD

The pIC50 is the IC50 on a negative log10 scale, so that one unit is a factor of ten. Regarding `[2H]C([2H])([2H])NC(=O)c1cnc(NC(=O)C2CC2)cc1Nc1nccc2c1N(C)Cc1cn(C)nc1-2` [Compound 64, 6-(cyclopropanecarboxamido)-4-((2,5-dimethyl-4,5-dihydro-2H-pyrazolo[4,3-c][1,7]naphthyridin-6-yl)amino)-N-(methyl-d3)nicotinamide], the pIC50 was < 6.00 in assay [1]; > 7.52 in assay [2]; < 6.00 against JAK2 kinase domain (JH1); 6.00 to 6.52 in assay [3]; < 6.00 at TYK2 kinase domain (JH1); < 6.00 at JAK1 kinase domain (JH1). Further, in assay [4], the negative logarithm of the IC50 (pIC50) is > 7.52.
Regarding `[2H]C([2H])([2H])NC(=O)c1cnc(NC(=O)C2CC2)cc1Nc1cccc2c1N(C)[C@@H](C)c1cn(C)nc1-2` (single isomer, unassigned) [Compound 30], the pIC50 against JAK3 kinase domain (JH1) was < 6.00; in assay [2] it was > 7.52; against JAK2 kinase domain (JH1), < 6.00; against TYK2 kinase domain (JH1), < 6.00; at JAK1 kinase domain (JH1), < 6.00; in assay [4] it was > 7.52.
With `[2H]C([2H])([2H])NC(=O)c1cnc(NC(=O)C2CC2)cc1Nc1cccc2c1N(C)Cc1cn(C3COC3)nc1-2` [Compound 29, 6-(cyclopropanecarboxamido)-N-(methyl-d3)-4-((5-methyl-2-(oxetan-3-yl)-4,5-dihydro-2H-pyrazolo[4,3-c]quinolin-6-yl)amino)nicotinamide], the pIC50 in assay [1] was < 6.00; in assay [2], > 7.52; at JAK2 kinase domain (JH1), < 6.00; in assay [3] it was < 6.00; against TYK2 kinase domain (JH1), < 6.00; at JAK1 kinase domain (JH1), < 6.00. The negative-log IC50 (pIC50) in assay [4] is > 7.52.
For `[2H]C([2H])([2H])NC(=O)c1cnc(NC(=O)C2CC2)cc1Nc1cccc2c1N(C)C([2H])([2H])c1cn(C)nc1-2` [Compound 35, 6-(cyclopropanecarboxamido)-4-((2,5-dimethyl-4,5-dihydro-2H-pyrazolo[4,3-c]quinolin-6-yl-4,4-d2)amino)-N-(methyl-d3)nicotinamide], the pIC50 was < 6.00 in assay [1]; < 6.00 against JAK3 kinase domain (JH1); > 7.52 in assay [2]; < 6.00 against JAK2 kinase domain (JH1); < 6.00 against TYK2 kinase domain (JH1); < 6.00 on JAK1 kinase domain (JH1). For the same compound, in assay [4], the pIC50 was > 7.52.
With `CN1Cc2cn(C)nc2-c2cccc(Nc3cc(NC(=O)C4CC4)nc4[nH]n(C)c(=O)c34)c21` [Compound 89, N-(4-((2,5-dimethyl-4,5-dihydro-2H-pyrazolo[4,3-c]quinolin-6-yl)amino)-2-methyl-3-oxo-2,3-dihydro-1H-pyrazolo[3,4-b]pyridin-6-yl)cyclopropanecarboxamide], the pIC50 is < 6.00 in assay [1]; < 6.00 against JAK3 kinase domain (JH1); 6.52 to 7.52 in assay [2]; < 6.00 at JAK2 kinase domain (JH1); < 6.00 in assay [3]; < 6.00 at TYK2 kinase domain (JH1). Also, the pIC50 in assay [4] is > 7.52.
Take `[2H]C([2H])([2H])NC(=O)c1cnc(NC(=O)[C@H]2C[C@H]2F)cc1Nc1cccc2c1N(C)Cc1cn(C)nc1-2` (single isomer, unassigned) [Compound 32]: the negative-log IC50 (pIC50) in assay [1] was < 6.00; against JAK3 kinase domain (JH1), < 6.00; in assay [2], > 7.52; against JAK2 kinase domain (JH1), < 6.00; on TYK2 kinase domain (JH1), < 6.00; at JAK1 kinase domain (JH1) it was < 6.00. Besides, the pIC50 in assay [4] was > 7.52.
With `[2H]C([2H])([2H])NC(=O)c1cnc(NC(=O)NC)cc1Nc1cccc2c1N(C)Cc1cn(C)nc1-2` [Compound 25, 4-((2,5-dimethyl-4,5-dihydro-2H-pyrazolo[4,3-c]quinolin-6-yl)amino)-N-(methyl-d3)-6-(3-methylureido)nicotinamide], the pIC50 in assay [1] was < 6.00; in assay [2] it was > 7.52; against JAK2 kinase domain (JH1), < 6.00; in assay [3], < 6.00; against TYK2 kinase domain (JH1), < 6.00; on JAK1 kinase domain (JH1), < 6.00. Further, the pIC50 in assay [4] was > 7.52.
Consider `[2H]C([2H])([2H])NC(=O)c1nnc(NC(=O)C2CC2)cc1Nc1nccc2c1N(C)Cc1cc(C)nn1-2` [Compound 68, 6-(cyclopropanecarboxamido)-4-((2,5-dimethyl-4,5-dihydropyrazolo[1,5-a]pyrido[3,4-e]pyrazin-6-yl)amino)-N-(methyl-d3)pyridazine-3-carboxamide], for which the pIC50 is < 6.00 in assay [1]; < 6.00 against JAK3 kinase domain (JH1); > 7.52 in assay [2]; < 6.00 against JAK2 kinase domain (JH1); < 6.00 on TYK2 kinase domain (JH1); < 6.00 on JAK1 kinase domain (JH1). Moreover, the pIC50 in assay [4] is > 7.52.
For the compound `[2H]C([2H])([2H])NC(=O)c1nnc(NC(=O)C2CC2)cc1Nc1nccc2c1N(C)[C@H](C)c1cn(C)nc1-2` (single isomer, unassigned) [Compound 70], the pIC50 is < 6.00 in assay [1]; 6.00 to 6.52 against JAK3 kinase domain (JH1); > 7.52 in assay [2]; 6.52 to 7.52 against JAK2 kinase domain (JH1); < 6.00 against TYK2 kinase domain (JH1); < 6.00 at JAK1 kinase domain (JH1). Moreover, the pIC50 in assay [4] is > 7.52.
As to `[2H]C([2H])([2H])NC(=O)c1nnc(NC(=O)C2CC2)cc1Nc1cccc2c1N(C([2H])([2H])[2H])Cc1cn(C)nc1-2` [Compound 28, 6-(cyclopropanecarboxamido)-N-(methyl-d3)-4-((2-methyl-5-(methyl-d3)-4,5-dihydro-2H-pyrazolo[4,3-c]quinolin-6-yl)amino)pyridazine-3-carboxamide], the pIC50 was 6.00 to 6.52 in assay [1]; < 6.00 against JAK3 kinase domain (JH1); > 7.52 in assay [2]; < 6.00 against JAK2 kinase domain (JH1); 6.52 to 7.52 in assay [3]; < 6.00 at JAK1 kinase domain (JH1). In addition, the pIC50 in assay [4] is > 7.52.
Consider `Cn1cc2c(n1)-c1cccc(Nc3cc(NC(=O)C4CC4)nc4[nH]n(C)c(=O)c34)c1OC2` [Compound 88, N-(2-methyl-4-((2-methyl-2,4-dihydrochromeno[4,3-c]pyrazol-6-yl)amino)-3-oxo-2,3-dihydro-1H-pyrazolo[3,4-b]pyridin-6-yl)cyclopropanecarboxamide], for which the pIC50 (in assay [1]; against JAK3 kinase domain (JH1); in assay [2]; at JAK2 kinase domain (JH1); in assay [3]; on TYK2 kinase domain (JH1)) was < 6.00 throughout. The pIC50 in assay [4] was 6.00 to 6.52.

These data come from patent US12122785B2, “Substituted pyridines, pyridazines, pyrimidines, and 1,2,4-triazines as TYK2 inhibitors” (Sudo Biosciences Limited, priority 2021, dated 2024).
